Results on 15 compounds are retold here after patent US12071404B2, “Aza (indole)-, benzothiophene-, and benzofuran-3-sulfonamides” (UCB Pharma GmbH, priority 2016, dated 2024).

Assay [1] has as its target T1, GPR17 (Homo sapiens, UniProt Q13304). In words: cAMP accumulation functional assay (HTRF, Schild analysis). It is filed as cell-based. More on the design: host or cells: Flp-In T-REx CHO. Conditions: CHO hGPR17 cells, Schild analysis vs MDL29,951, 5 μM forskolin, read-out: cAMP assay pA2 (converted). As for the experimental part:
Flp-In T-REx CHO cells stably expressing human GPR17 receptor (CHO hGPR17) from Evi Kostenis' lab (Bonn University, Germany) were cultured at 37° C. in a humidified atmosphere of 5% CO2. Cells were grown in DMEM with Nutrient Mixture F-12 supplemented with hygromycin B (500 μg/mL) and blasticidin (30 μg/mL). Expression from the Flp-In locus was induced by treatment with doxycycline (1 μg/mL) for 16-20 h prior assays.
GPR17 activation can also recruit Gi-type G-protein signaling, resulting in a decrease of intracellular cyclic adenosine monophosphate (cAMP). Intracellular cAMP changes can be measured using the HTRF cAMP dynamic assay kit from CisBio (Codolet, France). Using homogenous time-resolved fluorescence technology (HTRF), the assay is based on competition between native cAMP produced by cells and cAMP labelled with the dye d2. The tracer binding was determined by an anti-cAMP antibody labeled with cryptate.
CHO hGPR17 were detached with PBS containing EDTA and dispatched in black 384-well plates with 5,000 cells per well. Cells were first incubated for 30 minutes at room temperature in HBSS Hepes (pH 7.4) containing vehicle or varying concentrations of test GPR17 antagonist/inverse agonist compounds. […] After 60 minutes incubation at room temperature, the reaction is terminated and the cells lysed by adding the d2 detection reagent and the cryptate reagent in 10 μL lysis buffer each according to manufacturer's instructions. After 60 minutes incubation, changes in cAMP concentrations are measured according to manufacturer's instructions using an Envision plate reader with laser excitation. All incubations were performed in duplicate. Data was analyzed using GraphPad Prism software using the 4-parameter logistic equation to measure MDL29,951 pEC50s in absence and presence of GPR17 antagonist/inverse agonist test compounds. Dose ratio (DR) were plotted against antagonist concentrations and Schild analysis provided estimated affinity pA2 of GPR17 antagonist/inverse agonist test compounds.
The activities of the Example compounds tested are depicted in the table below. The activity ranges A, B and C refer to pA2 values in the cAMP assay as follows: “A”: pA2<7.5, “B”: pA2 7.5<x≤8.5, “C”: pA2>8.5.
(In general: cAMP levels reflect the balance of adenylyl cyclase and phosphodiesterase activity.)

The target of assay [2] is T1, GPR17. In words: Calcium mobilization functional assay (GPR17 Ca2+ assay). The format is cell-based. To be noted: CHO hGPR17 cells, inhibition of 50 nM MDL29,951, Calcium 5 dye, FLIPR; read-out: Ca2+ assay pIC50 (converted). More on the design: host or cells: Flp-In T-REx CHO. The essentials: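 pIC50 values were fitted with a 4-parameter logistic curve. They reflect test-compound inhibition of cytosolic Ca2+ release evoked by 50 nM MDL29,951, tracked as Calcium 5 fluorescence at room temperature. Cells were CHO Flp-In T-REx stably carrying human GPR17, induced with doxycycline 1 μg/mL for 16-20 h.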

T1 sequence (Q13304 whole entry): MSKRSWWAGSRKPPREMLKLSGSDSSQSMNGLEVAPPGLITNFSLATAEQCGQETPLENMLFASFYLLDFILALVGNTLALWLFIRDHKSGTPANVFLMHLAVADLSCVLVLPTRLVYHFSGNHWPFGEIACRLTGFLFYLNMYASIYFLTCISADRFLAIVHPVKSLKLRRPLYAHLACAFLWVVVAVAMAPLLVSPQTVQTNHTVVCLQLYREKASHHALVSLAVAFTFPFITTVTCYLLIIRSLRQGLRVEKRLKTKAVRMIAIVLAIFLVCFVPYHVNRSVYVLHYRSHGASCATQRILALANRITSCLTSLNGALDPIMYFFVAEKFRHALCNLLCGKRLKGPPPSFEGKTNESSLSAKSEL

Take `O=S(=O)(Nc1ccc(I)cc1F)c1c[nH]c2nc(Br)ccc12` [Compound I-104, 6-bromo-N-(2-fluoro-4-iodophenyl)-1H-pyrrolo[2,3-b]pyridine-3-sulfonamide]: at GPR17 [1], the Kb was less than 3.16 nM. In addition, on GPR17 [2], the IC50 is less than 3.16 nM.

As for `O=S(=O)(Nc1cccc2nsnc12)c1c[nH]c2cc(F)ccc12` [Compound I-107, N-(2,1,3-benzothiadiazol-4-yl)-6-fluoro-1H-indole-3-sulfonamide], the Kb on GPR17 [1] is 3.16 to 31.6 nM. In addition, the IC50 on GPR17 [2] is 3.16 to 31.6 nM.

Regarding `N#Cc1ccc(NS(=O)(=O)c2c[nH]c3nc(Cl)ccc23)c(F)c1` [Compound I-108, 6-chloro-N-(4-cyano-2-fluorophenyl)-1H-pyrrolo[2,3-b]pyridine-3-sulfonamide], the Kb at GPR17 [1] was 3.16 to 31.6 nM. The IC50 at GPR17 [2] is 3.16 to 31.6 nM.

With `O=S(=O)(Nc1cccc2nsnc12)c1c[nH]c2cc(Cl)ccc12` [Compound I-109, N-(2,1,3-benzothiadiazol-4-yl)-6-chloro-1H-indole-3-sulfonamide], the Kb at GPR17 [1] is 3.16 to 31.6 nM. Further, the IC50 at GPR17 [2] was less than 3.16 nM.

As for `O=S(=O)(Nc1cccc2nsnc12)c1c[nH]c2cc(Br)ccc12` [Compound I-110, N-(2,1,3-benzothiadiazol-4-yl)-6-bromo-1H-indole-3-sulfonamide], the Kb on GPR17 [1] was less than 3.16 nM. Besides, the IC50 at GPR17 [2] is less than 3.16 nM.

Turning to `COc1ccc2c(S(=O)(=O)Nc3ccc(C#N)cc3F)c[nH]c2c1` [Compound I-112, N-(4-cyano-2-fluorophenyl)-6-methoxy-1H-indole-3-sulfonamide], at GPR17 [1], the Kb is 3.16 to 31.6 nM. Moreover, on GPR17 [2], the IC50 is 3.16 to 31.6 nM.

For the compound `N#Cc1ccc(NS(=O)(=O)c2c[nH]c3cc(F)ccc23)c(F)c1` [Compound I-113, N-(4-cyano-2-fluorophenyl)-6-fluoro-1H-indole-3-sulfonamide], at GPR17 [1], the Kb was more than 31.6 nM. Further, the IC50 at GPR17 [2] is 3.16 to 31.6 nM.

As for `N#Cc1ccc(NS(=O)(=O)c2c[nH]c3cc(Br)ccc23)c(F)c1` [Compound I-114, 6-bromo-N-(4-cyano-2-fluorophenyl)-1H-indole-3-sulfonamide], the Kb at GPR17 [1] is less than 3.16 nM. Further, on GPR17 [2], the IC50 was less than 3.16 nM.

Take `O=S(=O)(Nc1cc(F)c(Cl)cc1F)c1c[nH]c2c1ccc1cccnc12` [Compound I-118, N-(4-chloro-2,5-difluorophenyl)-1H-pyrrolo[3,2-h]quinoline-3-sulfonamide]: the Kb at GPR17 [1] was less than 3.16 nM. Moreover, the IC50 on GPR17 [2] is less than 3.16 nM.

For `O=S(=O)(Nc1cccc2nonc12)c1c[nH]c2c1ccc1cccnc12` [Compound I-119, N-(2,1,3-benzoxadiazol-4-yl)-1H-pyrrolo[3,2-h]quinoline-3-sulfonamide], the Kb at GPR17 [1] is 3.16 to 31.6 nM. In addition, the IC50 at GPR17 [2] was 3.16 to 31.6 nM.

For the compound `O=S(=O)(Nc1cccc2c1OC(F)(F)O2)c1c[nH]c2cc(Cl)ccc12` [Compound I-123, 6-chloro-N-(2,2-difluoro-1,3-benzodioxol-4-yl)-1H-indole-3-sulfonamide], on GPR17 [1], the Kb was 3.16 to 31.6 nM. For the same compound, the IC50 at GPR17 [2] was 3.16 to 31.6 nM.

`COc1cc(NS(=O)(=O)c2c[nH]c3cc(Cl)ccc23)ccc1C#N` [Compound I-124, 6-chloro-N-(4-cyano-3-methoxyphenyl)-1H-indole-3-sulfonamide]: the Kb at GPR17 [1] was 3.16 to 31.6 nM. Besides, at GPR17 [2], the IC50 was 3.16 to 31.6 nM.

With `O=S(=O)(Nc1cc2c(cc1F)OC(F)(F)O2)c1c[nH]c2cc(Cl)ccc12` [Compound I-125, 6-chloro-N-(2,2,6-trifluoro-1,3-benzodioxol-5-yl)-1H-indole-3-sulfonamide], the Kb on GPR17 [1] is 3.16 to 31.6 nM. On GPR17 [2], the IC50 is 3.16 to 31.6 nM.

Take `COc1cc(C#N)ccc1NS(=O)(=O)c1c[nH]c2cc(Cl)ccc12` [Compound I-126, 6-chloro-N-(4-cyano-2-methoxyphenyl)-1H-indole-3-sulfonamide]: the Kb on GPR17 [1] is 3.16 to 31.6 nM. Besides, at GPR17 [2], the IC50 is 3.16 to 31.6 nM.

For `O=S(=O)(Nc1ccc(F)c2nsnc12)c1c[nH]c2cc(Cl)ccc12` [Compound I-127, 6-chloro-N-(7-fluoro-2,1,3-benzothiadiazol-4-yl)-1H-indole-3-sulfonamide], on GPR17 [1], the Kb was 3.16 to 31.6 nM. Also, at GPR17 [2], the IC50 is 3.16 to 31.6 nM.
